In patent publication US20040234962A1, “Multicoated or multilayer entrapment matrix for protein biosensor” (priority 2003, published 2004):

Assay: Fluorescence intensity of NBD-GGBP-CMC in presence and absence of glucose
Assay type: biochemical
Conditions: 100 nM preparation, 20 mM glucose; FIG. 6
Method: Covalent attachment was performed by activating carboxymethyl groups on the hydrogel polymer (CMC) with a mixture of N-hydroxysuccinimide (NHS) and N-ethyl-N′-(dimethylaminopropyl) carbodiimide (EDC). This forms an intermediate that is reactive to amines. NHS (100 mM) and EDC (400 mM) in water were mixed in a 1:1 vol:vol ratio. An equal volume of hydrogel polymer (25 mg/mL CMC in H2O) and the EDC/NHS mixture were combined, and incubated at room temperature for 15 to 30 minutes. The unreacted EDC and NHS were removed from the hydrogel polymer by eluting the polymer from a NAP-5 column. Varying amounts of activated hydrogel polymer were combined with the fluorescently-labeled GGBP (in this example, the NBD-A213C/L238C-GGBP-His6 mutant). The activated hydrogel polymer and protein were gently mixed, at room temperature, for 1 to 2 hours. […] An absorbance scan of solution not retained by the 100 kDa filter indicated no unattached protein remained. […] Activity of the NBD-GGBP-CMC was determined by fluorescence intensity measurement of the NBD-GGBP-CMC in the presence of high concentration glucose (20 mM) and in the absence of glucose. Thus, 100 nM preparations of the NBD-GGBP-CMC, as well as unattached NBD-GGBP (control) were measured before and after the addition of glucose (FIG. 6). […]

**Q.** Which “signal in the presence of glucose compared to the absence of glucose” value does the source give for “NBD-GGBP-CMC: NBD-labeled GGBP randomly covalently attached to carboxymethyl cellulose hydrogel polymer via EDC/NHS” here?
**A.** strong signal
